The values that follow come from ChEMBL document CHEMBL4251748, “Discovery of Cytochrome P450 4F11 Activated Inhibitors of Stearoyl Coenzyme A Desaturase” (J Med Chem, 2018).

Data set [1] relates to NCI-H1155. Description: Cytotoxicity against human NCI-H1155 cells incubated for 4 days in presence of sodium oleate. It is filed as functional, cell-based. The note with it: NCI-H1155, 96 h.
For data set [2], the system named is HCC95. Description: Cytotoxicity against human HCC95 cells at > 50 uM relative to control. It is filed as functional.
The test system of data set [3] is NCI-H1155. Description: Cytotoxicity against human NCI-H1155 cells expressing CYP4F11 incubated for 4 days in presence of sodium oleate. It is filed as functional, cell-based. The conditions noted are these: NCI-H1155, 96 h.
Data set [4] has as its system NCI-H2122. Briefly: Cytotoxicity against human NCI-H2122 cells incubated for 4 days. It is filed as functional, cell-based. The conditions noted are these: NCI-H2122, 96 h.
In data set [5] the test system is NCI-H1155. Description: Cytotoxicity against human NCI-H1155 cells. Format: functional, cell-based.
For data set [6], the system named is HCC4017. Description: Cytotoxicity against human HCC4017 cells. It is filed as functional, cell-based.
A short description of data set [7]: Half life in mouse liver S9 fraction by LC-MS/MS analysis. Format: ADME, subcellular.
The subject of data set [8] is NCI-H2009. Description: Cytotoxicity against human NCI-H2009 cells. It is filed as functional, cell-based.
In data set [9] the test system is HCC44. Description: Cytotoxicity against human HCC44 cells. Format: functional, cell-based.
The nature of data set [10]: Cytotoxicity against human HCC366 cells. Format: functional, cell-based.
Data set [11] deals with NCI-H1395. Briefly: Cytotoxicity against human NCI-H1395 cells. Format: functional, cell-based.
Data set [12] concerns NCI-H1993. Briefly: Cytotoxicity against human NCI-H1993 cells. It is filed as functional, cell-based.
The test system of data set [13] is HCC44. Description: Cytotoxicity against human HCC44 cells at > 50 uM relative to control. It is filed as functional.
The nature of data set [14]: Cytotoxicity against human NCI-H2073 cells. It is filed as functional, cell-based.
The subject of data set [15] is NCI-H460. Description: Cytotoxicity against human NCI-H460 cells. It is filed as functional, cell-based.
Data set [16] deals with NCI-H2122. Description: Cytotoxicity against human NCI-H2122 cells at > 50 uM relative to control. It is filed as functional.
Data set [17] has as its system NCI-H2122. Description: Cytotoxicity against human NCI-H2122 cells. Format: functional, cell-based.
Data set [18] deals with NCI-H460. Briefly: Cytotoxicity against human NCI-H460 cells at > 50 uM relative to control. It is filed as functional.
Data set [19] can be described thus: Cytotoxicity against human NCI-H1819 cells. It is filed as functional, cell-based.
Data set [20] relates to NCI-H1155. Briefly: Cytotoxicity against human NCI-H1155 cells expressing pLVX empty vector incubated for 4 days. It is filed as functional, cell-based. The note with it: NCI-H1155, 96 h.
The test system of data set [21] is HCC95. Briefly: Cytotoxicity against human HCC95 cells. It is filed as functional, cell-based.
The subject of data set [22] is NCI-H1155. Briefly: Cytotoxicity against human NCI-H1155 cells expressing CYP4F11 incubated for 4 days. Format: functional, cell-based. The note with it: NCI-H1155, 96 h.
The nature of data set [23]: Half life in human NCI-H1155 cells at 500 nM by LC-MS/MS analysis. Format: ADME, cell-based.
In data set [24] the target is T1, CYP4F11 (Homo sapiens, UniProt Q9HBI6).
T1 sequence (Q9HBI6 whole entry): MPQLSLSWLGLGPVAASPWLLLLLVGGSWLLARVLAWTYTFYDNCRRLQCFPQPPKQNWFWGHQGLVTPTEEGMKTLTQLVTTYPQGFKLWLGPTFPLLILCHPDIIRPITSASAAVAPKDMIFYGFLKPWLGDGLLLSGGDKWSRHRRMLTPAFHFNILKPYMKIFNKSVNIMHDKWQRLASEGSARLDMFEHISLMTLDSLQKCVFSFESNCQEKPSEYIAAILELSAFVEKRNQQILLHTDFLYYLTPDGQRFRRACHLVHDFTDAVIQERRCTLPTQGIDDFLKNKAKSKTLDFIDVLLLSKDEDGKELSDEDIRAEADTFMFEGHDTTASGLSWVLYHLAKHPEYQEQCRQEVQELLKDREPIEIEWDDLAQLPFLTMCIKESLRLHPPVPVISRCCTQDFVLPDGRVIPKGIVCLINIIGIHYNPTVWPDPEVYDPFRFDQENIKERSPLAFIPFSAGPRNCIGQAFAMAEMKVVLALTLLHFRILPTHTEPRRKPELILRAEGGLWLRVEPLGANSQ
Description: Drug metabolism in human NCI-H1155 cells assessed as CYP4F11-meidated O-demethylation by measuring half life at 500 nM by LC-MS/MS analysis. It is filed as ADME, cell-based.

Data set [25] can be described thus: Drug level in human NCI-H1155 cells after 4 hrs by LC-MS/MS analysis. It is filed as ADME, cell-based. The conditions noted are these: nci-h1155, 4 h.
The subject of data set [26] is NCI-H1155. Description: Ratio of EC50 for cytotoxicity against human NCI-H1155 cells expressing CYP4F11 incubated for 4 days in presence of sodium oleate to EC50 for cytotoxicity against human NCI-H1155 cells expressing CYP4F11 incubated for 4 days in absence of sodium oleate. It is filed as functional.

For `COc1ccc(CCNC(=O)C(=O)Nc2ccc(Cl)cc2)cc1`, the EC50 was > 50 µM in [1]; > 50 µM in [3]; 220 nM in data set [4]; > 10 µM in [5]; > 10 µM in data set [6]; > 10 µM in data set [8]. For the same compound, the EC50 was < 1000 nM in data set [9]; > 10 µM in data set [10]; > 10 µM in data set [11]; > 10 µM in [12]; > 10 µM in data set [14]; < 1000 nM in data set [15]. Further, the EC50 in [17] was < 1000 nM; in [19], > 10 µM; in data set [20] it was 36 µM; in data set [21], < 1000 nM; in data set [22], 670 nM. Also, the Activity in [2], in data set [13], in [16] and in data set [18] was >95% in each case. In addition, the half-life in [7] came out at 7 min.
On to `COc1ccc(CCNC(=O)NC(=O)c2ccc(COc3ccccc3)cc2)cc1`, for which the EC50 in data set [1] is > 50 µM; in [3], 3.6 µM; in data set [4], 10 nM; in [20] it was > 50 µM; in [22], 34 nM. In addition, the half-life in data set [7] was 158 min. Besides, the half-life at 0.5 µM was > 2880 min in [23] and 450 min in [24]. The compound also came in with a Drug uptake in data set [25] of 1670 nM. Also, the “Ratio EC50” value in [26] was 100.

What is called EC50 is the concentration needed to bring the measured effect to its halfway point. As usually defined, the half-life is the time in which the quantity being followed falls by half.
